Results on five molecules are retold here after patent US7094789B2, “5-substituted isoquinoline derivatives” (Asahi Kasei Pharma Corporation, priority 2002, dated 2006).

The subject of test [1] is ovalbumin-induced constriction of respiratory tract. As to the kind of experiment: Respiratory tract constriction suppression action (Test Example 3). The test is classed as in vivo, Hartley guinea pigs. As to conditions: ovalbumin-immunized guinea pigs; test medicament via hind leg vein; 15 minutes after administration. The method, then: Four-week old Hartley guinea pigs (male) were immunized by intraperitoneal administration of ovalbumin (Sigma, Grade V) in amounts of 1 mg for each animal on the day on which the experiment was started, 3 mg for each animal after 2 days, and 10 mg for each animal after 4 days. Twelve to fourteen days after the final immunization, the ovalbumin-immunized guinea pigs were anesthetized by intraperitoneal administration of about 40 mg/kg of pentobarbital (Somnopentyl), and the tracheas were taken out. Subsequently, a cannula (SP-110, Natsume) was inserted into each trachea, and one end of the cannula was connected to an artificial respirator (Model-b83, Harvard). The aeration conditions were set at 6 ml per kilogram and 60 times per 1 minute. Further, a cannula for medicament administration (JMS wing needle 23G 3/4) was inserted into a hind leg vein. Myoblock (Organon Technica) was administered in an amount of 0.5 mg/kg from the cannula inserted into the hind leg vein to stop the spontaneous breathing, and after 2 or 3 minutes, 0.3 mg/kg of ovalbumin was administered to induce constriction of respiratory tract. The increase of airway resistance value 2 minutes after the induction (measurement apparatuses: pressure transducer TR-603T, respiratory amplifier AR-601G, and recorder RTA-3100, Nihon Kohden Corp.) was confirmed to be above 80 cm H2O or higher, and then, a solution of a test medicament was administered from the cannula inserted into the hind leg vein, and the airway resistance value was continuously measured for 15 minutes after the administration to determine the effect.

The test system of test [2] is thoracic aorta constricted with phenylephrine. As to the kind of experiment: Vasoconstriction inhibitory action (Test Example 2). The arrangement: species or system Rats (Wistar). As to conditions: for vasoconstriction inhibitory action: result in words, rat thoracic aorta, phenylephrine. From the text:
Rats (Wistar, 11-week old) were bleeded to death and laparotomized to take out the thoracic aorta. That aorta was cut into a ring of a length of about 3 mm in a conventional manner (Asano, T., et al., J. Pharmacol. Exp. Ther., 241, pp. 1033–1040 (1987)) and hung in 10-ml organ bath filled with Krebs-Hensright nutrient solution bubbled with a mixed gas of 95% O2 and 5% CO2. One end of the blood vessel was connected to an isometric transducer (FD Pickup TB-912T, Nihon Kohden) and applied with 2.5 g of resting tension, and constriction and relaxation reactions of the aorta were recorded. The aorta was constricted with phenylephrine (1 μM, Sigma) and then added with a test compound (1 μM), and the vasoconstriction inhibitory action thereof was observed. The vasoconstriction inhibitory actions of the test compounds are shown in Table 6 mentioned below as the relaxation ratios, which are based on the vasoconstriction with phenylephrine immediately before the addition of the test compound taken as 100%.

Test [3] deals with T1, myosin light chain phosphorylation enzyme (MLCK) (Gallus gallus, UniProt P11799).
T1 construct: purified from chicken gizzard smooth muscle by a conventional method; from tissue; host or cells: chicken gizzard smooth muscle
Description: Action on myosin light chain phosphorylation enzyme (MLCK) activity. The test is classed as biochemical, chicken. As to conditions: for IC50: MLCK from chicken gizzard smooth muscle, ELISA, 100 μM ATP, read-out: Myosin light chain phosphorylation enzyme inhibitory action IC50; for inhibition of MLCK: result in words. The method, then:
A myosin light chain phosphorylation enzyme (MLCK) was purified from chicken gizzard smooth muscle by a conventional method (Yoshida, M., et al., J. Biochem., 99, 1027–1036 (1986)). The myosin regulatory light chain as a substrate was purified from the chicken gizzard smooth muscle by a conventional method (Grand, R. J., et al., Biochem. J., 211, 267–272 (1983)). The MLCK activity was measured by ELISA using pLC1 described in Test Example 1 (Sakurada, K., et al., J. Biochem., 115, 18–21 (1994)). The myosin regulatory light chain was diluted in phosphate-buffered saline (PBS, Sigma) to a concentration of 5.0 µg/ml, added to 96-well Immunoplate (Nunc) in a volume of 100 μl per well and left stand overnight at 4° C. Each well was washed with PBS, and 25 mM Tris/HCl buffer containing 100 μM ATP, 3 mM MgCl2, 1 mM CaCl2, 100 ng/ml of calmodulin (Sigma) and 100 ng/ml of MLCK (pH 7.4, Buffer A) was added to each well and incubated at 30° C. for 10 minutes. In a volume of 100 μl each of 20% aqueous phosphoric acid solution was added to each well to terminate the enzymatic reaction. Each well was washed with 25 mM Tris/HCl buffer (TTBS) containing 0.1% Tween 20, and then 100 μl each of pLC1 described in Test Example 1 was added to each well and incubated at room temperature for 90 minutes.
Each well was washed with TTBS, and then 100 μl of the HRP-labeled rabbit anti-mouse IgG antibodies (Bio-Rad) were added to each well and incubated at room temperature for 90 minutes. Each well was washed with TTBS, and then 25 mM citrate buffer (pH 5.0) containing orthophenylenediamine (Sigma) as a substrate of HRP and aqueous hydrogen peroxide (0.03%) was added in a volume of 100 μl per well and incubated at room temperature for 5 minutes. 50 μl of 4 N sulfuric acid was added to each well to terminate the reaction, and then absorbance was measured by using an immunoplate reader (Bio-Rad).
A general note: In an ELISA, binding on a coated surface is turned into a signal by an enzyme label.

Another test has as its system intraocular pressure. Description: Intraocular pressure reducing action (Test Example 4). The following applies: for inhibition in vivo at 1 %, 50 µL: Oryctolagus cuniculus, topical, 1% aqueous solution, 50 μl dropped to the left eye, after 2 hours, read-out: Intraocular pressure reducing action (reduction ratio) (%). In kind it is in vivo, Japanese white rabbit. On the procedure:
A Japanese white rabbit having a body weight of about 2 kg was placed in a positioner and naturalized for one week before the experiment. An ophthalmologic local anesthesant (Benoxil) was administered to the left eye, and then intraocular pressure was measured by using a tonometer (Classic 30, Solan). The initial value of the intraocular pressure was measured, then 50 μl of a test compound (1% aqueous solution) was dropped to the left eye, and after 2 hours, the intraocular pressure was measured. The intraocular pressure reducing action of the test compounds is shown in Table 7 mentioned below as ratios (%) of reduction of intraocular pressure based on the initial value of the intraocular pressure.

Test [4] deals with OVA-induced respiratory tract inflammation. Description: Respiratory tract inflammation suppressing action (Test Example 6). The test is classed as in vivo, BALB/c female mice. The following applies: result in words; OVA mice. The method, then: According to the method described in Henderson, W. R., et al., Am. J. Respir. Cric. Care Med., 165(1), 108–116 (2002), suppressing action on bronchial inflammation was confirmed. BALB/c female mice (7-week old) were used for the test, each group consisting of 7 mice, and the control group consisting of 11 or 12 mice. The mice were intraperitoneally administered with ovalbumin (OVA, 100 ng, Sigma) and 1 mg of aluminum hydroxide for initial immunization, and after 2 weeks, they are subcutaneously administered with 10 ng of OVA as additional immunization. After further 1 week, a test compound was dissolved in water containing 0.5% carboxymethylcellulose and orally administered (30 mg/kg) to the test animals once a day for 5 days. The control group was similarly given only with water containing 0.5% carboxymethylcellulose. After 1 hour, the mice were orally inhaled with 2% OVA for 10 minutes to induce a respiratory tract inflammation. […] After 24 hours, alveoli in the lungs of the test animals were washed with physiological saline, and the total infiltrated white blood cells (WBC) were counted.

The next test concerns neutrophils. Description: Neutrophil migration inhibitory action (Test Example 5). As to conditions: Homo sapiens, 0.5 h, FMLP 1 μM, Boyden Chamber, 37° C., 30 minutes, read-out: Neutrophil migration inhibition IC50. In kind it is cell-based. On the procedure: Neutrophils were isolated from 50 to 100 ml of peripheral blood collected from healthy donors by the method described in Test Example 1 to obtain a cell suspension (8×10^6/ml). Subsequently, solutions of a test compound at various concentrations were introduced into wells of a 96-well plate in a volume of 125 μl per well, the cell suspension of an equivalent volume was added to it and the plate was preincubated at room temperature for 5 minutes. During the preincubation, FMLP (1 μM, Sigma) solution was added to the lower chamber to set Boyden Chamber, the preincubated cell suspension was added to the upper chamber in a volume of 200 μl per well, and the cells were allowed to migrate at 37° C. under 5% carbon dioxide for 30 minutes. The filter after the migration was collected, and the non-migrated cells adhered to the surface that faced the upper chamber were carefully wiped off. Then, the migrated cells on the back surface were stained with DifQuick dye solution (International Reagents), washed with water and dried, and then absorbance was measured at 595 nm. The inhibition ratio against migration (%) of a test compound was calculated by using the following equation: Migration inhibition ratio (%)=(1−Absorbance of the group with addition of test compound/Absorbance of the group without addition of test compound)×100 […]

Test [5] deals with phosphorylated myosin regulatory light chain. Description: Action on amount of phosphorylated myosin regulatory light chain in the cells (Test Example 1). In kind it is cell-based. As to conditions: Homo sapiens, Neutrophil, 5 min, human neutrophils; reaction with test compound at 25° C. for 5 minutes; read-out: Inhibition of myosin regulatory light chain phosphorylation (IC50: μM). The method, then:
A volume of 50 to 100 ml of peripheral blood collected from healthy volunteers was centrifuged by using Mono-Poly separator solution (Dainippon Pharmaceutical) to prepare a neutrophil containing fraction. The neutrophils were washed with PBS(−) and resuspended in Hanks' Balanced Salt Solution (HBSS+, Gibco) to prepare a cell suspension (8×10^6/ml). The cell suspension was diluted to 5×10^6/ml, introduced into Eppendorf tubes in a volume of 0.4 ml each, then 0.1 ml each of solutions of a test compound at various concentrations were added to the suspension and allowed to react at 25° C. for 5 minutes. […]
The gel after the electrophoresis was blotted on a nitrocellulose membrane (BioRad), blocked with 5% skim milk, and reacted successively with antibodies pLC1 (Sakurada K. et al, Am. J. Physiol., 274, C1563–C1572 (1998)), which specifically recognize the phosphorylated myosin regulatory light chain, and donkey anti-mouse IgG (Chemicon) conjugated with horseradish peroxidase (HRP-labeled). The band of the phosphorylated myosin regulatory light chain was detected on a film by using ECL Plus Kit (Amersham Pharmacia Biotech). This band was subjected to quantification using a densitometer. By using this value, the inhibitory ratio (%) for phosphorylation of the myosin regulatory light chain was calculated by using the following equation. […]

As to `Cl.NCCCN(CCc1cccs1)S(=O)(=O)c1cccc2cnccc12` [Example 2, N-[(5-Isoquinolyl)sulfonyl]-N-[2-(2-thienyl)ethyl]-1,3-propylenediamine hydrochloride], the “constriction of respiratory tract (airway resistance value)” value (“constriction of respiratory tract” for short) in test [1] is reported as “significantly improved the constriction of respiratory tract”. Moreover, the vasoconstriction inhibitory action entry in test [2] was “significant vasoconstriction inhibitory action”. For the same molecule, in test [3], the IC50 is over 50 µM.
Consider `Cl.c1cc(NC2CCNCC2)c2ccncc2c1` [Example 20, 4-(5-Isoquinolyl)aminopiperidine hydrochloride], for which, in test [1], the “constriction of respiratory tract” value is reported as “significantly improved the constriction of respiratory tract”. For the same molecule, in the test on intraocular pressure, the inhibition in vivo at 1 %, 50 µL was 35.7%. Further, in test [3], the IC50 is over 100 µM.
In the case of `Cc1cncc2cccc(NC3CCNCC3)c12.Cl` [Example 106, 4-(4-Methyl-5-isoquinolyl)aminopiperidine hydrochloride], the “infiltrated white blood cell number” value in test [4] is “decrease of infiltrated white blood cell number”. Further, the “constriction of respiratory tract” value in test [1] was “significantly improved the constriction of respiratory tract”. Also, the vasoconstriction inhibitory action entry in test [2] is given as “significant vasoconstriction inhibitory action”. For the same molecule, in the test with intraocular pressure, the inhibition in vivo at 1 %, 50 µL worked out at 31.3%. In test [3], the “inhibition of MLCK” value is listed as “did not inhibit MLCK”.
On to `Cl.OCCN1CCC(Nc2cccc3cnccc23)CC1` [Example 144, 1-(2-Hydroxyethyl)-4-(5-isoquinolyl)aminopiperidine hydrochloride], for which, in test [1], the “constriction of respiratory tract” value is “significantly improved the constriction of respiratory tract”. For the same molecule, in the test on intraocular pressure (result in words, rabbit), the “intraocular pressure reducing activity” value was “significant intraocular pressure reducing activity”. Further, the “inhibition of MLCK” value in test [3] is recorded as “did not inhibit MLCK”.
Turning to `CC1CNCCN1S(=O)(=O)c1cccc2cnccc12` (centres unmarked) [Example H-7, 1-(5-Isoquinolinesulfonyl)-2-methylpiperazine], the values for the IC50 (with neutrophils; in test [5]) were over 40 µM and 80 µM, respectively. Also, the “Vasoconstriction inhibitory action (relaxation ratio) (%)” value in test [2] (test compound 1 μM, aorta constricted with phenylephrine 1 μM) was 22.0%.
